Measurements published in patent US20080220069A1, “Long Acting Injectable Crystal Formulations of Estradiol Metabolites and Methods of Using Same” (PR PHARMACEUTICALS, INC., priority 2004, published 2008).

What was measured:
[1] = room temperature
[2] = In vivo pharmacokinetics of altered crystal form (hemi hydrate) of 2ME (Example 6); conditions: rat, 5 mg/rat subcutaneous, hemi hydrate crystals approx. 10 μm, by day 28
Description: A solution of 2-methoxyestradiol (2ME) (Tetrionics, Madison, Wis.) was made in n-methylpyrrolidone at a 10% w/v concentration. One volume of the 2ME solution was added to 1000 volumes of water stirring rapidly at 23° C. The mixture was allowed to stir prior to the addition of sodium dodecyl sulfate (SDS) to a final concentration of 0.1% w/v. The 2ME was collected by sedimentation and washed twice with 0.1% SDS.
(§1) On day 0, each animal in the treatment group (n=6) received 5 mg/rat of 2ME in 0.25 ml injection vehicle consisting of 0.5% w/v sodium carboxymethylcellulose containing 5% w/v mannitol and 0.05% w/v SDS by subcutaneous injection using a 1 cc syringe and a 1 inch, 20-gauge needle. On Day—3 blood was collected from all rats via the tail vein. Rats were bled periodically via the lateral tail vein. Plasma samples were extracted, derivatized, and 2ME concentration was measured using a qualified gas chromatography-mass spectroscopy detection method. Plasma concentrations versus time are plotted in FIG. 2.

[3] = In vivo pharmacokinetics of 2ME particles ranging from 90 to 180 micrometers (Example 7); conditions: rat, 5 mg/rat subcutaneous, particles 90 to 180 micrometers
Description: as §1, with “A portion of the 2-methoxyestradiol prepared in Example 1 was ground in a mortar and pestle and sieved through stainless steel screens to generate a population of particles ranging from 90 to 180 micrometers. On day” for “On day”, “in FIG. 3.” for “in FIG. 2.”

[4] = In vivo pharmacokinetics of 2ME crystal preparation with broad size distribution (Example 2), plasma 2ME by gas chromatography-mass detection; conditions: rat, 5 mg/rat subcutaneous
Description: The material generated in Example 1 was ground in a mortar and pestle, sieved through a 180 um screen, and the particle size distribution of the sieved material was measured on a Coulter LS13320 Particle Size analyzer.
On day 0, animals in all treatment groups received 5 mg/rat of 2ME in 0.25 ml injection vehicle consisting of 2.0% w/v sodium carboxymethylcellulose containing 0.01% w/v Tween 80 and 0.1% w/v SDS by subcutaneous injection using a 1 cc syringe and a 1″, 20-gauge needle. On Day—3 blood was collected from all rats via the tail vein. On Days 1, 3, 7, 21, 28, and 35, all rats were bled via the lateral tail vein. Plasma samples were extracted, derivatized, and 2ME concentration was measured using a qualified gas chromatography-mass detection method. The plasma concentration profile of 2ME released from crystals with a broad size distribution is characterized by an initial burst followed by sustained blood levels of approximately 5 ng/ml between days 3 and 28.

[5] = rat, 16 mg subcutaneous in 2.5% w/v sodium carboxymethylcellulose, after 15 days

With `C[C@]12CC[C@@H]3c4cc(O)c(O)cc4CC[C@H]3[C@@H]1CC[C@@H]2O` [2-hydroxyestradiol] the water solubility [1] was “approximately 0.155 mg/ml”.

With `COc1cc2c(cc1O)CC[C@@H]1[C@@H]2CC[C@]2(C)[C@@H](O)CC[C@@H]12` [2ME, 2-methoxyestradiol] the “plasma 2ME concentrations” value [2] was “fallen to zero”, the 2ME in plasma ([3]; day 51) was “still measurable” and the initial plasma concentrations ([3]; first week) was “low initial plasma concentrations”. The “sustained blood levels of 2ME” value ([4]; crystals 48.98±36.95 μm, between days 3 and 28) was “approximately 5 ng/ml”, the 2ME blood levels ([4]; crystals 48.98±36.95 μm, by day 35) was “fallen to zero” and the “plasma concentration profile, initial phase” value ([4]; crystals with a broad size distribution) was “initial burst”.

In the case of `COc1cc2c(cc1OC(=O)c1ccccc1)CC[C@@H]1[C@@H]2CC[C@]2(C)[C@@H](O)CC[C@@H]12` [3-benzoyl-2-methoxyestradiol], the “release of the injected dose (chromatographic analysis of dissected injection site)” value [5] is reported as 6.2%±1.2 and the “water solubility of the esterified compound, fold lower than parent estradiol metabolite” value ([1]; same conditions as parent) is reported as “approximately 3 fold”.
